How the values were obtained:
[1] = target: T1, RARβ (Homo sapiens, UniProt P10826); experiment: chimeric receptor transactivation assay, RARβ; type: cell-based; conditions: EC50 line of EC50/(EFFICACY)/Kd, read-out: RAR EC50 β
T1 sequence (P10826 183-417 limits assumed): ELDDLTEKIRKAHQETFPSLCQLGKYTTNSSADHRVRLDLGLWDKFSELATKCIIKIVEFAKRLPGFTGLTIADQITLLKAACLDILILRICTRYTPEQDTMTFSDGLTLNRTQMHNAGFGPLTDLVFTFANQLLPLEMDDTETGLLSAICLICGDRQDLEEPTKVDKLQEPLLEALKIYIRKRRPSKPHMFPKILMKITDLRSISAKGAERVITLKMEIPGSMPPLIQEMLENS
Text: Assays described below measure the ability of a compound to bind to, and/or activate various retinoid receptor subtypes. When in these assays a compound binds to a given receptor subtype and activates the transcription of a reporter gene through that subtype, then the compound is considered an agonist of that receptor subtype. […] In the below described assays the ability of the compounds to bind to RARα, RARβ, RARγ, RXRα, RXRβ and RXRγ receptors, and the ability or inability of the compounds to activate transcription of a reporter gene through these receptor subtypes can be tested.
As far as specific assays are concerned, a chimeric receptor transactivation assay which tests for agonist-like activity in the RARα, RARβ, AND RARγ, receptor subtypes, and which is based on work published by Feigner P. L. and Holm M. (1989) Focus, 112 is described in detail in U.S. Pat. No. 5,455,265. The specification of U.S. Pat. No. 5,455,265 is hereby expressly incorporated by reference. The numeric results obtained with several preferred compounds of this invention in this assay are shown below in Table 1.

[2] = target: T2, P450RAI-1 (Homo sapiens, UniProt O43174); experiment: P450RAI-1 cell-based inhibitor assay; conditions: P450RAI-1 stably transfected HeLa cells, [3H]-RA metabolism, 3 hours at 37° C.; read-out: P450RAI INHIBITION DATA INTACT HELA IC50
T2 construct: expressed in transfected cells; host or cells: HeLa cells, stably transfected, hygromycin selection
T2 sequence (O43174 1-497): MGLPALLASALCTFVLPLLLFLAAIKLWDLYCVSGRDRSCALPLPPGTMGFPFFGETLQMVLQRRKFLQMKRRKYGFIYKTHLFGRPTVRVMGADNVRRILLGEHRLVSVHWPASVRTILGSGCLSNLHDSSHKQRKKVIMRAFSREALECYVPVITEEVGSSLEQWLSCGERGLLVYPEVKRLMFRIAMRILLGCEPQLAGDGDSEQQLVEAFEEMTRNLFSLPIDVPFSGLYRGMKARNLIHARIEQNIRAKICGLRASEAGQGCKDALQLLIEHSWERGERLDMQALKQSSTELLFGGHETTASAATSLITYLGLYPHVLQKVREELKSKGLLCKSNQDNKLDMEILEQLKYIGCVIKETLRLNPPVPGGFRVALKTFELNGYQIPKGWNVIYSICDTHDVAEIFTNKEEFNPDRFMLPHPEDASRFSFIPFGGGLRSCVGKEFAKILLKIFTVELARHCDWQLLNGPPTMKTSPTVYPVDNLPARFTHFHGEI
Procedure, shortened: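 HeLa cells stably expressing the enzyme (5×10^5/well) incubated 3 h at 37 °C with 0.05 μCi [3H]-all-trans-RA and compound at 10, 1 or 0.1 μM in triplicate. Water-soluble radioactive metabolites counted by scintillation; IC50 derived manually from log-transformed data.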

[3] = target: T3, RARα (Homo sapiens, UniProt P10276); experiment: ligand binding assay, RARα; conditions: Kd line of EC50/(EFFICACY)/Kd, read-out: RAR Kd α
T3 sequence (P10276 1-462): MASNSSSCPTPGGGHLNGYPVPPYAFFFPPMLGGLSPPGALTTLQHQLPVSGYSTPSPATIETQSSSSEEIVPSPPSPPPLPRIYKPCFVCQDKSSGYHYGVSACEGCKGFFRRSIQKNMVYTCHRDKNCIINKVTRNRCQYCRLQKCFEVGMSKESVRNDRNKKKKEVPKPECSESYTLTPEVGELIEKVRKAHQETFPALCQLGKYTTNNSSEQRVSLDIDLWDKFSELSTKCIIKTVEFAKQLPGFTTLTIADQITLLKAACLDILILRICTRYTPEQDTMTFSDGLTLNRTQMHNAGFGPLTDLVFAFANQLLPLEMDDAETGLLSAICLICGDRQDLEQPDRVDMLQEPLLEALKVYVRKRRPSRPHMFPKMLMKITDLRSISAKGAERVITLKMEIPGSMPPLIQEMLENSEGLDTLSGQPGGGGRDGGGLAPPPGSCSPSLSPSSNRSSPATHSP

Row | SMILES | EC50 [1] [nM] | IC50 [2] [nM] | Kd [3] [nM]
1 | CN(C1CC1)C1CCC(C)(C)c2cc(C#Cc3ccc(C(=O)O)cc3)ccc21 (centres unmarked) [Compound 3, 4-[(5-Cyclopropyl-methyl-amino)-8,8-dimethyl-5,6,7,8-tetrahydro-naphthalene-2yl-ethynyl]-benzoic Acid] | 4.8 | 3000 | 145
2 | CC1(C)CCC(=O)c2ccc(C#Cc3ccc(CC(=O)O)cc3)cc21 [Compound 5, 4-[(8,8-Dimethyl-5-oxo-5,6,7,8-tetrahydro-naphthalene-2-yl-ethynyl)-phenyl]-acetic Acid] | 11 | 550 | 9150
3 | CN(C1CC1)C1CCC(C)(C)c2cc(C#Cc3ccc(CC(=O)O)cc3)ccc21 (centres unmarked) [Compound 8, 4-[(5-(Cyclopropyl-methyl-amino)-8,8-dimethyl-5,6,7,8-tetrahydro-naphthalene-2-yl-ethynyl)-phenyl]-acetic Acid] | 363 | 400 | –
4 | CC1(C)CC2(CC2)Oc2ccc(C#Cc3ccc(C(=O)O)cc3)cc21 [Compound 40, Benzoic Acid, 4-[(3,4-dihydro-4,4-dimethylspiro[2H-1-benzopyran-2,1′-cyclopropane]-6-yl)ethynyl]-] | 1.2 | 1700 | 69
5 | CC1(C)CC2(CC2)Oc2ccc(C#Cc3ccc(C(=O)O)c(F)c3)cc21 [Compound 44, 2-Fluoro-benzoic Acid, 4-[(3,4-dihydro-4,4-dimethylspiro[2H-1-benzopyran-2,1′-cyclopropane]-6-yl)ethynyl]-] | 1.7 | 270 | 37
6 | COC1(c2ccc(C#Cc3ccc(C(=O)O)cc3)cc2)CC1 [Compound 69, 4-[4-(1-Methoxycyclopropyl)-phenylethynyl]-benzoic Acid] | 12 | > 10000 | 469
7 | CC(C)OC1(c2ccc(C#Cc3ccc(C(=O)O)cc3)cc2)CC1 [Compound 73, 4-[4-(1-Isopropoxycyclopropyl)-phenylethynyl]-benzoic Acid] | 22.5 | > 10000 | 486
8 | Cc1cc(C#Cc2ccc(C(=O)O)cc2)ccc1C1(OCc2ccccc2)CC1 [Compound 81, 4-[4-(1-Benzyloxycyclopropyl)-3-methyl-phenylethynyl]-benzoic Acid] | 490 | > 10000 | 4210
9 | Cc1cc(C#Cc2ccc(C(=O)O)cc2)ccc1C1(OC(C)C)CC1 [Compound 85, 4-[4-(1-Isopropoxycyclopropyl)-3-methyl-phenylethynyl]-benzoic Acid] | 3.5 | > 10000 | 1860
10 | Cc1cc(C#Cc2ccc(C(=O)O)cc2)ccc1C1(OCC(C)(C)C)CC1 [Compound 89, 4-[4-[1-(2,2-Dimethylpropyloxy)-cyclopropyl]-3-methyl-phenylethynyl]-benzoic Acid] | 26 | > 10000 | 3410
11 | CCc1cc(C#Cc2ccc(C(=O)O)cc2)ccc1C1(OCc2ccccc2)CC1 [Compound 93, 4-[4-(1-Benzyloxycyclopropyl)-3-ethyl-phenylethynyl]-benzoic Acid] | 20 | > 10000 | 3450
12 | CCCNC1(c2ccc(C#Cc3ccc(C(=O)O)cc3)cc2)CC1 [Compound 108, 4-[4-(1-Propylamino-cyclopropyl)-phenylethynyl]-benzoic Acid] | 283 | > 10000 | 21000
13 | CCCN(CCC)C1(c2ccc(C#Cc3ccc(C(=O)O)cc3)cc2)CC1 [Compound 110, 4-[4-(1-Dipropylamino-cyclopropyl)-phenylethynyl]-benzoic Acid] | 74 | > 10000 | 2060
14 | O=C(O)c1ccc(C#Cc2ccc(C3(NCc4ccccc4)CC3)cc2)cc1 [Compound 112, 4-[4-(1-Benzylamino-cyclopropyl)-phenylethynyl]-benzoic Acid] | 335 | > 10000 | 5850

From patent US6369225B1, “Compounds having activity as inhibitors of cytochrome P450RAI” (Allergan Sales, Inc., priority 2000, dated 2002)
